Test results as given in patent publication US11752188B2, “Compositions and methods for nutritional supplements” (DailyColors Health Inc., priority 2020, dated 2023).
Where two headings read alike, the source gives them in different places.

Molecular target: T1, recombinant human NAMPT (Homo sapiens, UniProt P43490)
T1 construct: purchased 91004
Assay: NAMPT in vitro enzymatic fluorescence assay
Type: biochemical
Protocol: Assay Conditions: The control compound is dissolved in DMSO. The dilution of the compounds was first performed in 100% DMSO with the highest concentration at 0.01 mM. […] For NAMPT, the compounds (see 2.2) were preincubated with NAMPT enzyme (see 2.3.1) in for 30 minutes. […] The final concentration of DMSO in all reactions was 1%. Fluorescence intensity was measured at an excitation of 340 nm and an emission of 460 nm using a Tecan Infinite M1000 microplate reader.
Data Analysis: NAMPT activity assays were performed in duplicates at each concentration. […] In the absence of the compound, the fluorescent intensity (Ft) in each data set was defined as 100% activity. In the absence of NAMPT, the fluorescent intensity (Fb) in each data set was defined as 0% activity. The percent activity in the presence of each compound was calculated according to the following equation: % activity=(F−Fb)/(Ft−Fb), where F=the fluorescent intensity in the presence of the compound. The values of percentage activity were plotted on a bar graph.

T1 sequence (P43490 whole entry): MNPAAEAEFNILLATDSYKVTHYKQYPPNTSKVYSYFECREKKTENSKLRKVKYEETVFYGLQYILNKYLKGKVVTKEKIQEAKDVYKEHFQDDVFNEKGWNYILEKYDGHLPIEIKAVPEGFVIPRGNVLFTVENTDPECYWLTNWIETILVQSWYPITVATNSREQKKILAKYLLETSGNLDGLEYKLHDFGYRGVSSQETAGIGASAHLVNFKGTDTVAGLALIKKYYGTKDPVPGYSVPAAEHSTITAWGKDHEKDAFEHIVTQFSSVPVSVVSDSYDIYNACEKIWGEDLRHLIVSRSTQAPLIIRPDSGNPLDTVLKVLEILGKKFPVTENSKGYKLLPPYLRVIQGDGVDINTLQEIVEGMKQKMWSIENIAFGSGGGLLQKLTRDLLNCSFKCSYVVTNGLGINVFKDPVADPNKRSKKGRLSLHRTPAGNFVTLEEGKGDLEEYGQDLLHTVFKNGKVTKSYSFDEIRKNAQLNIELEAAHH

SMILES: O=C(/C=C/c1cccnc1)NCCCCC1CCN(C(=O)c2ccccc2)CC1 [FK-866]
- inhibition at 0.001 µM: 4%
- inhibition at 0.01 µM: 57%
- inhibition at 0.1 µM: 100%
- Background (Fluorescence count) Repeat 1 (0.001 μM): 450
- Background (Fluorescence count) Repeat 2 (0.001 μM): 442
- NAMPT Activity (Fluorescence Intensity) Repeat 1 (0.001 μM): 3328
- NAMPT Activity (Fluorescence Intensity) Repeat 2 (0.001 μM): 3345
- Background (Fluorescence count) Repeat 1 (0.01 μM): 454
- Background (Fluorescence count) Repeat 2 (0.01 μM): 461
- NAMPT Activity (Fluorescence Intensity) Repeat 1 (0.01 μM): 1750
- NAMPT Activity (Fluorescence Intensity) Repeat 2 (0.01 μM): 1766
- Background (Fluorescence count) Repeat 1 (0.1 μM): 440
- Background (Fluorescence count) Repeat 2 (0.1 μM): 442
- NAMPT Activity (Fluorescence Intensity) Repeat 1 (0.1 μM): 463
- NAMPT Activity (Fluorescence Intensity) Repeat 2 (0.1 μM): 468
- activity at 0.001 µM (read-out: % Activity Repeat 1): 95%
- activity at 0.01 µM (read-out: % Activity Repeat 1): 42%
- activity at 0.1 µM (read-out: % Activity Repeat 1): 0%
- activity at 0.001 µM (read-out: % Activity Repeat 2): 96%
- activity at 0.01 µM (read-out: % Activity Repeat 2): 43%
- activity at 0.1 µM (read-out: % Activity Repeat 2): 0%
